Data on three compounds can be found in patent US20050113292A1 (priority 2003, published 2005).

One may read the EC50 as the concentration that produces a half-maximal response. Low readings indicate higher potency in that assay, high ones lower potency in that assay. The term IC50 denotes the midpoint of a concentration-inhibition curve. Low values mean greater potency, high ones weaker potency.

The test system of one experiment is HIV-1. It counts as cell-based.
Experiment [1] relates to HIV-1 mediated cell-cell fusion (R8 virus). The settings on record: for EC50 / IC50: mediated cell-cell fusion (R8 virus).
For the next experiment, the system named is T-tropic (R8) HIV-1. The settings on record: for IC50: T-tropic (R8).
The next experiment has as its system M-tropic (BAL) HIV-1. Conditions: for IC50: M-tropic (BAL).
The next experiment has as its system R9 HIV-1 virus. The class given is cell-based. The settings on record: 0.01 µM.

Values joined by “and” are separate entries in the source; they are usually repeats but may differ in a detail not shown here. Identical values can stand only once.

Regarding `CC[C@H](C)[C@H](NC(=O)[C@H](CC(C)C)NC(=O)[C@H](CO)NC(=O)[C@H](Cc1c[nH]cn1)NC(=O)[C@@H](NC(=O)[C@H](CC(C)C)NC(=O)[C@H](CO)NC(=O)[C@@H](NC(=O)[C@H](Cc1ccc(O)cc1)NC(=O)[C@H](CC(N)=O)NC(=O)[C@H](CC(N)=O)NC(=O)[C@@H](NC(=O)[C@H](CCC(=O)O)NC(=O)[C@H](CCCNC(=N)N)NC(=O)[C@H](CC(=O)O)NC(=O)[C@H](Cc1c[nH]c2ccccc12)NC(=O)[C@H](CCC(=O)O)NC(=O)[C@H](CCSC)NC(=O)[C@@H]1Cc2c([nH]c3ccccc23)C(C(=O)NCCCC[C@H](NC(=O)CCNC(=O)C2N[C@H](C(=O)N[C@@H](CCSC)C(=O)N[C@@H](CCC(=O)O)C(=O)N[C@@H](Cc3c[nH]c4ccccc34)C(=O)N[C@@H](CC(=O)O)C(=O)N[C@@H](CCCNC(=N)N)C(=O)N[C@@H](CCC(=O)O)C(=O)N[C@H](C(=O)N[C@@H](CC(N)=O)C(=O)N[C@@H](CC(N)=O)C(=O)N[C@@H](Cc3ccc(O)cc3)C(=O)N[C@H](C(=O)N[C@@H](CO)C(=O)N[C@@H](CC(C)C)C(=O)N[C@H](C(=O)N[C@@H](Cc3c[nH]cn3)C(=O)N[C@@H](CO)C(=O)N[C@@H](CC(C)C)C(=O)N[C@H](C(=O)N[C@@H](CCC(=O)O)C(=O)N[C@@H](CCC(=O)O)C(=O)N[C@@H](CO)C(=O)N[C@@H](CCC(N)=O)C(=O)N[C@@H](CC(N)=O)C(=O)N[C@@H](CCC(N)=O)C(=O)N[C@@H](CCC(N)=O)C(=O)N[C@@H](CCC(=O)O)C(=O)N[C@@H](CCCCN)C(=O)N[C@@H](CC(N)=O)C(=O)N[C@@H](CCC(=O)O)C(=O)N[C@@H](CCC(N)=O)C(=O)N[C@@H](CCC(=O)O)C(=O)N[C@@H](CC(C)C)C(=O)N[C@@H](CC(C)C)C(=O)O)[C@@H](C)CC)[C@@H](C)CC)[C@@H](C)O)[C@@H](C)CC)Cc3c2[nH]c2ccccc32)C(=O)N[C@@H](CCCCNC(=O)CNC(=O)C2N[C@H](C(=O)N[C@@H](CCSC)C(=O)N[C@@H](CCC(=O)O)C(=O)N[C@@H](Cc3c[nH]c4ccccc34)C(=O)N[C@@H](CC(=O)O)C(=O)N[C@@H](CCCNC(=N)N)C(=O)N[C@@H](CCC(=O)O)C(=O)N[C@H](C(=O)N[C@@H](CC(N)=O)C(=O)N[C@@H](CC(N)=O)C(=O)N[C@@H](Cc3ccc(O)cc3)C(=O)N[C@H](C(=O)N[C@@H](CO)C(=O)N[C@@H](CC(C)C)C(=O)N[C@H](C(=O)N[C@@H](Cc3c[nH]cn3)C(=O)N[C@@H](CO)C(=O)N[C@@H](CC(C)C)C(=O)N[C@H](C(=O)N[C@@H](CCC(=O)O)C(=O)N[C@@H](CCC(=O)O)C(=O)N[C@@H](CO)C(=O)N[C@@H](CCC(N)=O)C(=O)N[C@@H](CC(N)=O)C(=O)N[C@@H](CCC(N)=O)C(=O)N[C@@H](CCC(N)=O)C(=O)N[C@@H](CCC(=O)O)C(=O)N[C@@H](CCCCN)C(=O)N[C@@H](CC(N)=O)C(=O)N[C@@H](CCC(=O)O)C(=O)N[C@@H](CCC(N)=O)C(=O)N[C@@H](CCC(=O)O)C(=O)N[C@@H](CC(C)C)C(=O)N[C@@H](CC(C)C)C(=O)O)[C@@H](C)CC)[C@@H](C)CC)[C@@H](C)O)[C@@H](C)CC)Cc3c2[nH]c2ccccc32)C(=O)N[C@@H](CO)C(=O)N[C@@H](CO)C(=O)N[C@@H](C)C(N)=O)N1)[C@@H](C)CC)[C@@H](C)O)[C@@H](C)CC)C(=O)N[C@@H](CCC(=O)O)C(=O)N[C@@H](CCC(=O)O)C(=O)N[C@@H](CO)C(=O)N[C@@H](CCC(N)=O)C(=O)N[C@@H](CC(N)=O)C(=O)N[C@@H](CCC(N)=O)C(=O)N[C@@H](CCC(N)=O)C(=O)N[C@@H](CCC(=O)O)C(=O)N[C@@H](CCCCN)C(=O)N[C@@H](CC(N)=O)C(=O)N[C@@H](CCC(=O)O)C(=O)N[C@@H](CCC(N)=O)C(=O)N[C@@H](CCC(=O)O)C(=O)N[C@@H](CC(C)C)C(=O)N[C@@H](CC(C)C)C(=O)O` (stereo partly drawn) [Compound 3α-C34], in the experiment with HIV-1, the “Neutralization (%)” value is less than 5%. In experiment [1], the “fold increase over monomer, cell-cell fusion” value (from here on “fold increase over monomer”) worked out at 34 fold; the EC50 was found to be 1 nM; the 50% inhibitory concentration (IC50) is 1 nM. Further, in the experiment on T-tropic (R8) HIV-1, the “fold increase of potency over monomer, R8 virus” value (shortened to “fold increase … R8 virus”) is on record as 42 fold and the concentration for half-maximal inhibition (IC50) was found to be 1 nM. Also, in the experiment on M-tropic (BAL) HIV-1, the “fold increase of potency over monomer, BAL virus” value (“fold increase … BAL virus” below) is given as 88 fold and the concentration for half-maximal inhibition (IC50) came to 0.06 nM.
For `CC[C@H](C)[C@H](NC(=O)[C@H](CC(C)C)NC(=O)[C@H](CO)NC(=O)[C@H](Cc1c[nH]cn1)NC(=O)[C@@H](NC(=O)[C@H](CC(C)C)NC(=O)[C@H](CO)NC(=O)[C@@H](NC(=O)[C@H](Cc1ccc(O)cc1)NC(=O)[C@@H]1CSC(C(=O)NCCCC[C@H](NC(=O)CCNC(=O)C2N[C@H](C(=O)N[C@@H](Cc3ccc(O)cc3)C(=O)N[C@H](C(=O)N[C@@H](CO)C(=O)N[C@@H](CC(C)C)C(=O)N[C@H](C(=O)N[C@@H](Cc3c[nH]cn3)C(=O)N[C@@H](CO)C(=O)N[C@@H](CC(C)C)C(=O)N[C@H](C(=O)N[C@@H](CCC(=O)O)C(=O)N[C@@H](CCC(=O)O)C(=O)N[C@@H](CO)C(=O)N[C@@H](CCC(N)=O)C(=O)N[C@@H](CC(N)=O)C(=O)N[C@@H](CCC(N)=O)C(=O)N[C@@H](CCC(N)=O)C(=O)N[C@@H](CCC(=O)O)C(=O)N[C@@H](CCCCN)C(=O)N[C@@H](CC(N)=O)C(=O)N[C@@H](CCC(=O)O)C(=O)N[C@@H](CCC(N)=O)C(=O)N[C@@H](CCC(=O)O)C(=O)N[C@@H](CC(C)C)C(=O)N[C@@H](CC(C)C)C(=O)N[C@@H](CCC(=O)O)C(=O)N[C@@H](CC(C)C)C(=O)N[C@@H](CC(=O)O)C(=O)N[C@@H](CCCCN)C(=O)N[C@@H](Cc3c[nH]c4ccccc34)C(=O)N[C@@H](C)C(=O)N[C@@H](CO)C(=O)N[C@@H](CC(C)C)C(=O)N[C@@H](Cc3c[nH]c4ccccc34)C(=O)N[C@@H](CC(N)=O)C(=O)N[C@@H](Cc3c[nH]c4ccccc34)C(=O)N[C@@H](Cc3ccccc3)C(=O)O)[C@@H](C)CC)[C@@H](C)CC)[C@@H](C)O)CS2)C(=O)N[C@@H](CO)C(=O)N[C@@H](CO)C(=O)N[C@@H](C)C(N)=O)N1)[C@@H](C)O)[C@@H](C)CC)C(=O)N[C@@H](CCC(=O)O)C(=O)N[C@@H](CCC(=O)O)C(=O)N[C@@H](CO)C(=O)N[C@@H](CCC(N)=O)C(=O)N[C@@H](CC(N)=O)C(=O)N[C@@H](CCC(N)=O)C(=O)N[C@@H](CCC(N)=O)C(=O)N[C@@H](CCC(=O)O)C(=O)N[C@@H](CCCCN)C(=O)N[C@@H](CC(N)=O)C(=O)N[C@@H](CCC(=O)O)C(=O)N[C@@H](CCC(N)=O)C(=O)N[C@@H](CCC(=O)O)C(=O)N[C@@H](CC(C)C)C(=O)N[C@@H](CC(C)C)C(=O)N[C@@H](CCC(=O)O)C(=O)N[C@@H](CC(C)C)C(=O)N[C@@H](CC(=O)O)C(=O)N[C@@H](CCCCN)C(=O)N[C@@H](Cc1c[nH]c2ccccc12)C(=O)N[C@@H](C)C(=O)N[C@@H](CO)C(=O)N[C@@H](CC(C)C)C(=O)N[C@@H](Cc1c[nH]c2ccccc12)C(=O)N[C@@H](CC(N)=O)C(=O)N[C@@H](Cc1c[nH]c2ccccc12)C(=O)N[C@@H](Cc1ccccc1)C(=O)O` (stereo partly drawn) [Compound 2α-DP178], in the experiment on HIV-1, the “Neutralization (%)” value is <5% and 6%. The “percentage of inhibition of cell infection” value in the experiment with R9 HIV-1 virus is roughly 100%. In addition, in experiment [1], the “fold increase over monomer” value came to 122 fold; the EC50 stood at 0.18 nM; the IC50 was determined as 0.18 nM. In the experiment with T-tropic (R8) HIV-1, the “fold increase … R8 virus” value was 182 fold and inhibition was half-maximal at 0.42 nM (IC50). For the same compound, in the experiment on M-tropic (BAL) HIV-1, the “fold increase … BAL virus” value is 14 fold and the IC50 is 0.28 nM.
`CC[C@H](C)[C@H](NC(=O)[C@H](CC(C)C)NC(=O)[C@H](CO)NC(=O)[C@H](Cc1c[nH]cn1)NC(=O)[C@@H](NC(=O)[C@H](CC(C)C)NC(=O)[C@H](CO)NC(=O)[C@@H](NC(=O)[C@H](Cc1ccc(O)cc1)NC(=O)[C@H](CC(N)=O)NC(=O)[C@H](CC(N)=O)NC(=O)[C@@H](NC(=O)[C@H](CCC(=O)O)NC(=O)[C@H](CCCNC(=N)N)NC(=O)[C@H](CC(=O)O)NC(=O)[C@H](Cc1c[nH]c2ccccc12)NC(=O)[C@H](CCC(=O)O)NC(=O)[C@H](CCSC)NC(=O)[C@@H]1Cc2c([nH]c3ccccc23)C(C(=O)NCCCC[C@H](NC(=O)CCNC(=O)C2N[C@H](C(=O)N[C@@H](CCSC)C(=O)N[C@@H](CCC(=O)O)C(=O)N[C@@H](Cc3c[nH]c4ccccc34)C(=O)N[C@@H](CC(=O)O)C(=O)N[C@@H](CCCNC(=N)N)C(=O)N[C@@H](CCC(=O)O)C(=O)N[C@H](C(=O)N[C@@H](CC(N)=O)C(=O)N[C@@H](CC(N)=O)C(=O)N[C@@H](Cc3ccc(O)cc3)C(=O)N[C@H](C(=O)N[C@@H](CO)C(=O)N[C@@H](CC(C)C)C(=O)N[C@H](C(=O)N[C@@H](Cc3c[nH]cn3)C(=O)N[C@@H](CO)C(=O)N[C@@H](CC(C)C)C(=O)N[C@H](C(=O)N[C@@H](CCC(=O)O)C(=O)N[C@@H](CCC(=O)O)C(=O)N[C@@H](CO)C(=O)N[C@@H](CCC(N)=O)C(=O)N[C@@H](CC(N)=O)C(=O)N[C@@H](CCC(N)=O)C(=O)N[C@@H](CCC(N)=O)C(=O)N[C@@H](CCC(=O)O)C(=O)N[C@@H](CCCCN)C(=O)N[C@@H](CC(N)=O)C(=O)N[C@@H](CCC(=O)O)C(=O)N[C@@H](CCC(N)=O)C(=O)N[C@@H](CCC(=O)O)C(=O)N[C@@H](CC(C)C)C(=O)N[C@@H](CC(C)C)C(=O)O)[C@@H](C)CC)[C@@H](C)CC)[C@@H](C)O)[C@@H](C)CC)Cc3c2[nH]c2ccccc32)C(=O)N[C@@H](CO)C(=O)N[C@@H](CO)C(=O)N[C@@H](C)C(N)=O)N1)[C@@H](C)CC)[C@@H](C)O)[C@@H](C)CC)C(=O)N[C@@H](CCC(=O)O)C(=O)N[C@@H](CCC(=O)O)C(=O)N[C@@H](CO)C(=O)N[C@@H](CCC(N)=O)C(=O)N[C@@H](CC(N)=O)C(=O)N[C@@H](CCC(N)=O)C(=O)N[C@@H](CCC(N)=O)C(=O)N[C@@H](CCC(=O)O)C(=O)N[C@@H](CCCCN)C(=O)N[C@@H](CC(N)=O)C(=O)N[C@@H](CCC(=O)O)C(=O)N[C@@H](CCC(N)=O)C(=O)N[C@@H](CCC(=O)O)C(=O)N[C@@H](CC(C)C)C(=O)N[C@@H](CC(C)C)C(=O)O` (stereo partly drawn) [Compound 2α-C34]: in the experiment with HIV-1, the “Neutralization (%)” value is less than 5%. Further, in experiment [1], the “fold increase over monomer” value was 74 fold; it took 0.47 nM to reach a half-maximal effect (EC50); 0.47 nM corresponded to half-maximal inhibition (IC50). Moreover, the “fold increase … R8 virus” value with T-tropic (R8) HIV-1 turned out to be 42 fold. Also, in the experiment with M-tropic (BAL) HIV-1, the “fold increase … BAL virus” value was found to be 45 fold and the IC50 was 0.09 nM.
